Measured values: the NIST ThermoML archive (doi:10.1016/j.fluid.2004.10.028)

Experiment: wn = mass fraction of the nth substance listed
Conditions: Liquid, Capillary tube (Ostwald / Ubbelohde) method

O=S(=O)([O-])[O-].[Na+].[Na+] [sodium sulfate] + O
viscosity [mPa·s]
Conditions | 10000 kPa | 20000 kPa | 30000 kPa | 40000 kPa
421.5 K, w1 = 0.03 | 0.2013 | 0.2035 | 0.2068 | 0.209
422.51 K, w1 = 0.23 | 0.4132 | 0.4195 | 0.4254 | 0.43
422.61 K, w1 = 0.015 | 0.1927 | 0.1968 | 0.1999 | 0.2022
423.8 K, w1 = 0.26 | 0.4623 | 0.4688 | 0.4726 | 0.4803
424.67 K, w1 = 0.05 | 0.2079 | 0.2096 | 0.213 | 0.2164
425.6 K, w1 = 0.07 | 0.2211 | 0.2267 | 0.2293 | 0.23
444.81 K, w1 = 0.2 | 0.3083 | 0.3129 | 0.3175 | 0.3219
446.24 K, w1 = 0.05 | 0.1796 | 0.182 | 0.1853 | 0.1879
447 K, w1 = 0.07 | 0.1913 | 0.1946 | 0.1975 | 0.1998
447.2 K, w1 = 0.1 | 0.2125 | 0.2163 | 0.2189 | 0.2219
447.6 K, w1 = 0.015 | 0.1633 | 0.1684 | 0.17 | 0.1724
447.6 K, w1 = 0.15 | 0.2493 | 0.2551 | 0.2575 | 0.2603
447.6 K, w1 = 0.26 | 0.3901 | 0.3981 | 0.401 | 0.4047
447.81 K, w1 = 0.03 | 0.1686 | 0.1705 | 0.1734 | 0.1761
447.9 K, w1 = 0.23 | 0.3449 | 0.3498 | 0.3568 | 0.3609
470.16 K, w1 = 0.05 | 0.1564 | 0.1598 | 0.1629 | 0.1647
470.7 K, w1 = 0.015 | 0.1432 | 0.1468 | 0.1499 | 0.1508
471.31 K, w1 = 0.1 | 0.1847 | 0.1878 | 0.1904 | 0.1941
472 K, w1 = 0.23 | 0.2966 | 0.3024 | 0.3086 | 0.312
472.2 K, w1 = 0.07 | 0.1656 | 0.1689 | 0.1706 | 0.1739
472.3 K, w1 = 0.2 | 0.2608 | 0.2661 | 0.2699 | 0.2739
473.7 K, w1 = 0.03 | 0.1456 | 0.1486 | 0.1514 | 0.153
473.9 K, w1 = 0.26 | 0.3308 | 0.3354 | 0.3413 | 0.3476
473.93 K, w1 = 0.15 | 0.2133 | 0.2169 | 0.2199 | 0.224
496.34 K, w1 = 0.23 | 0.262 | 0.2695 | 0.2734 | 0.2776
497.1 K, w1 = 0.03 | 0.1296 | 0.1312 | 0.136 | 0.1375
497.19 K, w1 = 0.2 | 0.2292 | 0.2335 | 0.2387 | 0.2425
497.8 K, w1 = 0.15 | 0.1892 | 0.1945 | – | –
